Like-named read-outs stand apart in the source and are kept apart here.
Key:
HaCat cells [1] = assay: Cell viability of HaCat keratinocytes, Neutral Red Staining; assay type: cell-based, human; conditions: for IC50: Homo sapiens, HaCaT, read-out: Mean IC50 in keratinocytes, HaCat; for Effect on viability of HaCat cells: 5-100 μM, 24 hr; for Responsiveness of HaCat cells (viability): comparison of thioridazine, doxorubicin, 5-FU, FIG. 3A
Procedure: (§1) In general, 10,000 cells/well were treated with drugs from different categories of psychotropic drugs.
(§2) The effect of the drugs was compared at equimolar concentrations to that of two commonly used anticancer agents (Doxorubicin and 5-fluorouracil (5-FU)).

HaCat A5 cells = assay: Cell viability of HaCat A5 keratinocytes, Neutral Red Staining; assay type: cell-based, human; conditions: for Effect on viability of HaCat A5 cells: 5-100 μM, 24 hr
Procedure: as §1, §2

HaCat II-4RT cells = assay: Cell viability of HaCat II-4RT keratinocytes, Neutral Red Staining; assay type: cell-based, human; conditions: for Effect on viability of HaCat II4 cells: 5-100 μM, 24 hr
Procedure: as §1, §2

[2] = tested on: caspase-3 in human HaCaT cells; assay: Caspase-3 activation, fluorimetric Ac-DEVD-AMC method; assay type: cell-based; conditions: 4 hours, paroxetine 10-20 μM, sertraline 10-[…] μM
Procedure: An additional marker for apoptosis is the activation of caspase-3 (a key mediator implicated in apoptosis in mammalian cells belong to the asparate-specific cysteinyl proteases or caspases).
In the following assay caspase-3 activation was measured by an enzymatic fluorimetric method, using fluorigenic substrate (Ac-DEVD-AMC) (Biomol, PA, USA) which produces a blue fluorescence detected at a 360 nm wavelength. The fluorigenic moiety AMC is cleaved from the substrate in the presence of caspase-3 (and caspase-3-like enzymes), which results in appearance of a yellow-green fluorescence monitored by a fluorimeter at 460 nm. The amount of the yellow-green fluorescence is proportional to the activity of the caspase-3 in the cell extract sample.
[…]. […] Measurements were determined, after the 4 hr exposure, every 3 min during 45 min, after which a specific caspase 3 inhibitor DEVD-AMC-CHO (Alexis corp. Lausen Switzerland) was added to half of the samples and measurements continued for another 45 min as previously described (Garcia-Calvo M, Peterson E P, Leiting B, Ruel R, Nicholson D W, Thornberry N A: Inhibition of human caspases by peptide-based and macromolecular inhibitors. J Biol Chem, 27(49):32608-13, 1998).

MDR B16 melanoma cells [3] = assay: Cell viability of MDR B16 melanoma cells; assay type: cell-based; conditions: 24 hr
Procedure: Specifically, the different drugs were applied for 24 hr to the cells (20,000/well) at concentrations of 10, 20, 30, 50, 75 and 100 μM.

[4] = tested on: wild type B16 melanoma cells; assay: Cell viability of wild type B16 melanoma cells; assay type: cell-based; conditions: 24 hr, 10-100 μM
HaCat cells [5] = assay: Apoptosis by Hoechst 33342 / propidium iodide fluorescence microscopy; assay type: cell-based, human; conditions: 20 μM, 24 hours
Procedure: In particular, HaCat cells (10,000/well) were exposed to the different drugs (20 μM) or to saline (control). Twenty four hours post exposure, the cells were co-stained with the DNA binding dyes, Hoechst 33342 (20 μg/ml) propidium iodide (PI) (10 μg/ml), for 5 min at room temperature. The cells were then examined using a fluorescence microscope with ultraviolet excitation at 340-380 nm. Typically, intact cells are detected by a blue Hoechst fluorescence while fragmented nuclear is detected by a red fluorescence, indicating cells undergoing apoptosis [Harel et al., Sensitivity of HaCat keratinocytes to diabetogenic toxins, Biochem. Pharmacol., 63:171-178, 2002].

mouse splenocytes = assay: Con-A-induced mouse splenocyte proliferation, Alamar blue; assay type: cell-based; conditions: for Splenocyte proliferation: 48 hours
Procedure: The effect of several psychotropic drugs on the proliferation of Con-A-induced mouse splenocyte proliferation was examined. The specific drugs evaluated included, without being limited thereto, the bicyclic antidepressants paroxetine and sertraline.
In particular, mouse splenocytes were isolated from C57BL healthy female mice. […]
Cell viability was assessed 48 hr later using Alamar blue staining.
(§3) In particular, cells 1×10^6 cells/well were exposed for 48 hours to each drug (2.5-10 μM).
(§4) As described above, cells were exposed to each drug for 48 hours.

[6] = tested on: wild type B16 melanoma cells; assay: Effect on doxorubicin toxicity in wild type B16 melanoma cells; assay type: cell-based; conditions: clomipramine 10, […], 20 μM + doxorubicin 1, 2.5, 5 μM, 24 hr
[7] = tested on: IL-2 and INF-γ secretion from mouse splenocytes; assay: Con-A-induced splenocyte secretion of IL-2 and INF-γ; assay type: cell-based; conditions: 48 hours, 2.5-10 μM; FIG. 14
Procedure: as §3

MDR B16 melanoma cells [8] = assay: Sensitization of MDR B16 melanoma cells to doxorubicin; assay type: cell-based; conditions: 24 hr
[9] = tested on: TNF-α secretion from mouse splenocytes; assay: Con-A-induced TNF-α secretion from mouse splenocytes, ELISA; assay type: cell-based; conditions: 48 hours; for IC50: Mus musculus, Splenocyte, 2.5-20 μM, mean of three experiments
Procedure: Cells treated with Con-A alone served as the control (“Con-A”).
In particular, mouse splenocyte cells 1×10 (cells/well) were exposed, for 48 hours, to the different drugs and ConA and at the end of the experiment plates were centrifuged and supernatant collected for cytokine determination and TNF-α levels were determined in soups by ELISA. (R&D #DY410 Minnapolis USA)
as §4

human lymphocytes = assay: PHA-induced human lymphocyte proliferation, Alamar blue; assay type: cell-based; conditions: PHA 2.5 μg/ml, 48 hr, 3 healthy volunteers
Procedure: Human lymphocytes were isolated from whole blood of 3 healthy volunteers. Lymphocyte proliferation was induced by exposure 1×10^6 cells/well to phytohemagglutinin (PHA) (2.5 μg/ml). Cell viability was assessed 48 hr post exposure to paroxetine (2.5-10.0 μM) using Alamar blue reagent (Wildflower, Santa Fe, N.M., USA) staining Nociari M M, Shalev A, Benias P , et al. A novel one-step highly sensitive fluorimetric assay to evaluate cell-mediated cytotoxicity. J. Immunol. Methods 213(2): 157-167, 1998.

[10] = 24 hr post-administration, Neutral Red, mean of several experiments

CN(C)CCCC1(c2ccc(F)cc2)OCc2cc(C#N)ccc21 (stereo not shown) [Citalopram, citalopram]
IC50 (HaCat cells [1]; [10]): > 100 µM

CCOc1ccccc1OC(c1ccccc1)C1CNCCO1 (stereo not shown) [Reboxetine, reboxetine]
IC50 (HaCat cells [1]; 24 h): > 100 µM

CSc1ccc2c(c1)N(CCC1CCCCN1C)c1ccccc1S2 (stereo not shown) [Thioridazine, thioridazine]
Effect on viability of HaCat A5 cells (HaCat A5 cells): effective in reducing viability
Effect on viability of HaCat cells (HaCat cells [1]): effective in reducing viability
Effect on viability of HaCat II4 cells (HaCat II-4RT cells): effective in reducing viability

O=c1[nH]cc(F)c(=O)[nH]1 [5-FU, 5-fluorouracil]
Responsiveness of HaCat A5 cells (viability) (HaCat A5 cells; comparison of thioridazine, doxorubicin, 5-FU, FIG. 3B): resistant
Responsiveness of HaCat cells (viability) (HaCat cells [1]): resistant

CN[C@H]1CC[C@@H](c2ccc(Cl)c(Cl)c2)c2ccccc21 [Sertraline, sertraline]
Caspase-3 activity [2]: significant increase in caspase-3 activity

COc1ccc(C(CN(C)C)C2(O)CCCCC2)cc1 (stereo not shown) [Venlafaxine, venlafaxine]
IC50 (HaCat cells [1]; [10]): > 100 µM

CN1CCN(C2=Nc3cc(Cl)ccc3Nc3ccccc32)CC1 [Clozapine, clozapine]
Viability of MDR B16 melanoma cells (MDR B16 melanoma cells [3]): reduced in a dose dependent manner
Viability of wild type B16 melanoma cells [4]: reduced in a dose dependent manner
Effect on viability of HaCat A5 cells (HaCat A5 cells): effective in reducing viability
Effect on viability of HaCat cells (HaCat cells [1]): effective in reducing viability
Effect on viability of HaCat II4 cells (HaCat II-4RT cells): effective in reducing viability

CN(C)CCCN1c2ccccc2CCc2ccccc21 [Imipramine, imipramine]
Effect on viability of HaCat A5 cells (HaCat A5 cells): effective in reducing viability
IC50 (HaCat A5 cells; Homo sapiens, HaCaT, 24 hr post-administration, Neutral Red, mean of several experiments): 62 µM
Effect on viability of HaCat cells (HaCat cells [1]): effective in reducing viability
Effect on viability of HaCat II4 cells (HaCat II-4RT cells): effective in reducing viability
IC50 (HaCat II-4RT cells; Homo sapiens, HaCaT, 24 hr post-administration, Neutral Red, mean of several experiments, read-out: Mean IC50 in keratinocytes, HaCatII4RT): 48 µM

CN(C)CCCN1c2ccccc2CCc2ccc(Cl)cc21 [Clomipramine, clomipramine]
Red fluorescence of nuclei indicating apoptosis (HaCat cells [5]): dramatic increase in red fluorescence of nuclei
Splenocyte proliferation (mouse splenocytes; 2.5-10 μM, FIG. 14): dose dependent decrease in splenocyte proliferation
Cell viability from control, in combination with doxorubicin [6]: less than 15%
Viability of wild type B16 melanoma cells [4]: capable of reducing cell viability
Effect on viability of HaCat A5 cells (HaCat A5 cells): effective in reducing viability
Lymphocyte-induced cytokine secretion (IL-2, INF-γ) [7]: decrease in the lymphocyte-induced cytokine secretion
Cell viability in combination with doxorubicin (MDR B16 melanoma cells [8]): significantly reduced, in a dose dependant manner
Effect on viability of HaCat cells (HaCat cells [1]): effective in reducing viability
Effect on viability of HaCat II4 cells (HaCat II-4RT cells): effective in reducing viability

NCCC(Oc1ccc(C(F)(F)F)cc1)c1ccccc1 (stereo not shown) [norfluoxetine]
Antiproliferative activity as compared to fluoxetine (HaCat cells [1]; viability of HaCat cells, FIG. 10): five times increased antiproliferative activity

Fc1ccc([C@@H]2CCNC[C@H]2COc2ccc3c(c2)OCO3)cc1 [Paroxetine, paroxetine]
Red fluorescence of nuclei indicating apoptosis (HaCat cells [5]): dramatic increase in red fluorescence of nuclei
TNF-α secretion ([9]; 2.5-25 μM, FIG. 16): inhibited cell proliferation and TNF-α secretion in a dose dependent manner
IC50 [9]: 2.5 µM
Splenocyte proliferation (mouse splenocytes; 2.5-10 μM, FIG. 14): dose dependent decrease in splenocyte proliferation
Splenocyte proliferation (mouse splenocytes; 2.5-25 μM, FIG. 16): inhibited cell proliferation and TNF-α secretion in a dose dependent manner
IC50 (mouse splenocytes; Mus musculus, Splenocyte, 48 hr, 2.5-10 μM, C57BL mice): 2.5 to 5.5 µM
Caspase-3 activity [2]: significant increase in caspase-3 activity
IC50 (human lymphocytes): 5 to 10 µM
Viability of wild type B16 melanoma cells [4]: capable of reducing cell viability
Effect on viability of HaCat A5 cells (HaCat A5 cells): effective in reducing viability
Lymphocyte-induced cytokine secretion (IL-2, INF-γ) [7]: decrease in the lymphocyte-induced cytokine secretion
Effect on viability of HaCat cells (HaCat cells [1]): effective in reducing viability
IC50 (HaCat cells [1]; [10]): 17.8 µM
Effect on viability of HaCat II4 cells (HaCat II-4RT cells): effective in reducing viability

CNCCC(Oc1ccc(C(F)(F)F)cc1)c1ccccc1 (stereo not shown) [Fluoxetine, fluoxetine]
Viability of wild type B16 melanoma cells [4]: capable of reducing cell viability, with fluoxetine being the most effective drug
Effect on viability of HaCat A5 cells (HaCat A5 cells): effective in reducing viability
Effect on viability of HaCat cells (HaCat cells [1]): effective in reducing viability
Effect on viability of HaCat II4 cells (HaCat II-4RT cells): effective in reducing viability

COc1cccc2c1C(=O)c1c(O)c3c(c(O)c1C2=O)C[C@@](O)(C(=O)CO)C[C@@H]3O[C@H]1C[C@H](N)[C@H](O)[C@H](C)O1 [doxorubicin]
Responsiveness of HaCat cells (viability) (HaCat cells [1]): equimolar IC50 as for thioridazine

C[C@@H]1C[C@H]2[C@@H]3CCC4=CC(=O)C=C[C@]4(C)[C@@]3(F)[C@@H](O)C[C@]2(C)[C@@]1(O)C(=O)CO [dexamethasone]
IC50 [9]: 0.6 µM

Source: patent US20050013853A1, “Anti-proliferative drugs” (priority 2000, published 2005)
